# Results published in patent publication US4808409A, “Low cariogenic sweetening agents” (Board of Trustees, University of Illinois, priority 1984, dated 1989).
# Assays:
# in vivo = conditions: mouse, in vivo, po
# Experimental: (§1) Compounds were suspended in a minimum volume of 1% sodium carboxymethylcellulose, and were administered by oral intubation at the doses indicated in Table II.
# (§2) ^a Male SwissWebster mice (9 or 10 animals per dose).
# (§3) ^d Mortality = number of mice dying within 14 days/number of starting
# (§4) ^e Mortality = number of mice dying within 24 hours/number of startin
# male Swiss-Webster mice = experiment: in vivo
# Experimental: as §1, §2, §3, §4
# human taste panel = experiment: Human taste panel magnitude estimation of sweetness intensity and pleasantness
# Excerpt: Solutions were presented to the subjects in a randomized fashion and were sampled in duplicate. After tasting, each solution was expectorated, and the mouth was washed with distilled water.
# S. mutans = experiment: Cariogenicity: acid production by S. mutans from sweetener; assay type: cell-based; conditions: 500 micrograms per unit volume sucrose
# Experimental: In a first test, the ability of microbes to utilize this sweetener source as a nutrient and convert it to acidic by-products was determined.
compound,measurement,setting,value
"CC1=CC(=O)CCC1 [3-Methyl-2-cyclohexen-1-one, 3-methyl-2-cyclohexen-1-one]",LD50 at 24 h,in vivo,< 2000 mg/kg
same,Estimated LD50,"male Swiss-Webster mice; mouse, in vivo, po",1600 ± 130 mg/kg
same,Mortality at 1.1 g/kg,"male Swiss-Webster mice; oral, 1.1 g/kg",0/10
same,Mortality at 1.3 g/kg,"male Swiss-Webster mice; oral, 1.3 g/kg",2/10
same,Mortality at 1.4 g/kg,"male Swiss-Webster mice; oral, 1.4 g/kg",4/10
same,Mortality at 1.6 g/kg,"male Swiss-Webster mice; oral, 1.6 g/kg",5/10
same,Mortality at 2.0 g/kg (24 hours),"male Swiss-Webster mice; oral, 2.0 g/kg, 24 hours",8/10
same,Mortality at 2.4 g/kg,"male Swiss-Webster mice; oral, 2.4 g/kg",10/10
same,Acute toxicity for mice,"male Swiss-Webster mice; oral, in words",essentially non-toxic
"OC[C@H]1O[C@@](CO)(O[C@H]2O[C@H](CO)[C@@H](O)[C@H](O)[C@H]2O)[C@@H](O)[C@@H]1O [Sucrose, reference compound]","Sweetness intensity, sucrose 0.031 M","human taste panel; 0.031 M, scale 0-100, mean (standard error)",6.6 (2.44)
same,"Sweetness pleasantness, sucrose 0.031 M","human taste panel; 0.031 M, scale -100 to +100, mean (standard error)",-3.2 (6.44)
same,"Sweetness intensity, sucrose 0.062 M","human taste panel; 0.062 M, scale 0-100, mean (standard error)",7.8 (1.96)
same,"Sweetness pleasantness, sucrose 0.062 M","human taste panel; 0.062 M, scale -100 to +100, mean (standard error)",-1.6 (7.61)
same,"Sweetness intensity, sucrose 0.125 M","human taste panel; 0.125 M, scale 0-100, mean (standard error)",21.9 (3.30)
same,"Sweetness pleasantness, sucrose 0.125 M","human taste panel; 0.125 M, scale -100 to +100, mean (standard error)",19.2 (5.23)
same,"Sweetness intensity, sucrose 0.25 M","human taste panel; 0.25 M, scale 0-100, mean (standard error)",38.1 (4.43)
same,"Sweetness pleasantness, sucrose 0.25 M","human taste panel; 0.25 M, scale -100 to +100, mean (standard error)",31.8 (6.34)
same,"Sweetness intensity, sucrose 0.50 M","human taste panel; 0.50 M, scale 0-100, mean (standard error)",44.4 (4.63)
same,"Sweetness pleasantness, sucrose 0.50 M","human taste panel; 0.50 M, scale -100 to +100, mean (standard error)",37.8 (5.96)
same,"Sweetness intensity, sucrose 1.0 M","human taste panel; 1.0 M, scale 0-100, mean (standard error)",75.5 (4.73)
same,"Sweetness pleasantness, sucrose 1.0 M","human taste panel; 1.0 M, scale -100 to +100, mean (standard error)",2.5 (9.57)
same,"Sweetness intensity, sucrose 2.0 M","human taste panel; 2.0 M, scale 0-100, mean (standard error)",89.1 (2.93)
same,"Sweetness pleasantness, sucrose 2.0 M","human taste panel; 2.0 M, scale -100 to +100, mean (standard error)",-20.2 (12.69)
same,Sucrose concentration providing a standard panel response to sucrose intensity,human taste panel; determined graphically,0.27 M
same,Sweetness intensity at matched concentration,"human taste panel; scale 0-100, sucrose 0.27 M, natural hernandulcin 2.5 × 10^-4 M",40
same,Rate of acid production at 500 micrograms per unit volume,S. mutans,2.8×10^-4 mEq acid/min.
